The results in this text go back to patent US20240254129A1, “HETEROCYCLIC COMPOUNDS AND USES THEREOF” (Kumquat Biosciences Inc., priority 2021, published 2024).

For one assay, the target named is T1, K-Ras G12D mutant (Homo sapiens, UniProt P01116, G12D).
T1 construct: GST (N); made in house; host or cells: E. coli BL21 (DE3)
As to the kind of experiment: Nucleotide exchange assay (SOS1, BODIPY FL GDP), mutant K-Ras. Format: biochemical. The following applies: compound marked *: general methodology of example 7 (nucleotide exchange); read-out: IC50 against mutant Kras. The protocol: (§1) This assay can be also used to assess a selective inhibition of a mutant Ras protein relative to a wildtype, or relative to a different mutant Ras protein. For example, 250 nM or 500 nM GDP-loaded K-Ras proteins (e.g., wildtype or a mutant thereof including those mentioned in Example 6), each was incubated with different concentrations of compounds (for example ˜60 μM, ˜20 μM, ˜6.7 μM, ˜2.2 μM, ˜0.7 µM, ˜0.2 μM subject compound). A control reaction without subject compound was also included. SOS1 (catalytic domain) protein was added to the K-Ras protein solution. The nucleotide exchange reaction was initiated by adding fluorescent labelled GDP (Guanosine 5′-Diphosphate, BODIPY™ FL 2′-(or-3′)—O—(N-(2-Aminoethyl) Urethane) to a final concentration of 0.36 μM. Fluorescence was measured every 30 s for 70 minutes at 490 nm/515 nm (excitation/emission) in a M1000Pro plate reader (Tecan). Data is exported and analyzed to calculate an IC50 using GraphPad Prism (GraphPad Software). Sample(s) was tested with or without a subject compound disclosed herein including compound(s) exemplified in Table 1 to assess compound's ability to inhibit K-Ras signaling or its IC50 against a given Ras protein (e.g., a given mutant K-Ras) of interest.

Another assay concerns the target T2, wildtype K-Ras (Homo sapiens, UniProt P01116).
T2 construct: GST (N); made in house; host or cells: E. coli BL21 (DE3)
As to the kind of experiment: Nucleotide exchange assay (SOS1, BODIPY FL GDP), wildtype K-Ras. Format: biochemical. The following applies: compound marked *: general methodology of example 7 (nucleotide exchange); read-out: IC50 against wildtype Kras. Here is the method:
as §1

A further assay has as its target T3, wildtype Kras / hSOS1 (Homo sapiens, UniProt P01116).
T3 construct: made in house; host or cells: E. coli BL21 (DE3)
As to the kind of experiment: HTRF assay, wildtype Kras / SOS1 interaction. Format: binding. The following applies: compound nos. 401-703; read-out: IC50 against wildtype Kras. In outline: (§2)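 GST-tagged K-Ras (mutant or wildtype) with anti-GST-Eu donor was mixed with His-hSOS1 and anti-6His-XL665 acceptor in HEPES pH 7.4 buffer with NaCl, DTT, BSA and Igepal. After ≥10 min, HTRF was read (ex 337 nm, em 620/665 nm); 665/620 ratios gave IC50 from duplicate dilution series.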

The target of assay [1] is GST-tagged K-Ras mutant / His-tagged hSOS1 (Homo sapiens, UniProt P01116). Nature of the assay: HTRF assay, K-Ras mutant / SOS1 interaction. Particulars: compound nos. 401-703; read-out: IC50 against mutant Kras. Format: binding. In outline: as §2
Sequence of GST-tagged K-Ras mutant / His-tagged hSOS1 (P01116 whole entry G12D, form open): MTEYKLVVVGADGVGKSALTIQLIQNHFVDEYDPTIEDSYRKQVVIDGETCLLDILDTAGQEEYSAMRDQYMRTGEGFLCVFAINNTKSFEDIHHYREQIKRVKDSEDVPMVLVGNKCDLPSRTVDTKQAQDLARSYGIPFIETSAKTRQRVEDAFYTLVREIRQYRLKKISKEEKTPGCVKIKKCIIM
(In general: In TR-FRET formats the signal depends on donor and acceptor labels being close together.)

T3 sequence (P01116 1-188 isoform P01116-2): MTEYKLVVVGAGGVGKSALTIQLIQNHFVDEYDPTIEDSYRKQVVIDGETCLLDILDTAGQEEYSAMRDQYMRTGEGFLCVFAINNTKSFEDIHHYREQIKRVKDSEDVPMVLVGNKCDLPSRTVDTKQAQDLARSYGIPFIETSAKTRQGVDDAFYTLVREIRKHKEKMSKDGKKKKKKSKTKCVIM
T1 sequence (P01116 1-188 isoform P01116-2 G12D): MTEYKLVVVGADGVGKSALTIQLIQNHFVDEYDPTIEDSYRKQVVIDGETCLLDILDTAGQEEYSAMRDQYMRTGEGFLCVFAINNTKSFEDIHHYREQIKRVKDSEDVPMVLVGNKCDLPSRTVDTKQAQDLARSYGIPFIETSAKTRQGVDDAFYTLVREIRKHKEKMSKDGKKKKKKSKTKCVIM
T2 sequence (P01116 1-188 isoform P01116-2): as the sequence (P01116 1-188 isoform P01116-2) above

A word on the IC50: it is the point on the concentration scale where inhibition reaches its midpoint. `CN1CCC[C@H]1COc1nc(N2CCCNCC2)c2cc(Cl)c(-c3cccc4sc(N)nc34)c(F)c2n1` [Compound 101, 4-(6-chloro-4-(1,4-diazepan-1-yl)-8-fluoro-2-(((S)-1-methylpyrrolidin-2-yl)methoxy)quinazolin-7-yl)benzo[d]thiazol-2-amine]: the IC50 on K-Ras G12D mutant is below 500 nM; on wildtype K-Ras, above 500 nM.
With `CN(C)CC1(COc2nc(N3CC4CCC(C3)N4)c3cc(Cl)c(-c4cccc5oc(N)nc45)c(F)c3n2)CC1` [Compound 692, 4-(4-(3,8-diazabicyclo-[3.2.1]-octan-3-yl)-6-chloro-2-((1-((dimethylamino)-methyl)cyclopropyl)meth-oxy)-8-fluoroquinazolin-7-yl)benzo[d]oxazol-2-amine], the results for the IC50 (at wildtype Kras / hSOS1; in assay [1]) were above 500 nM and below 500 nM, respectively.
The corresponding values for `O=C(c1cc(O)cc2ccccc12)N1CCc2nc(OCC34CCCN3CCC4)nc(N3CC4CCC(C3)N4)c2CC1` [Compound 694, (4-(3,8-diazabicyclo[3.2.1]-octan-3-yl)-2-((tetrahydro-1H-pyrrolizin-7a(5H)-yl)-methoxy)-5,6,8,9-tetrahydro-7H-pyrimido[4,5-d]azepin-7-yl)(3-hydroxynaphthalen-1-yl)methanone] are above 500 nM and above 500 nM.
The corresponding values for `Nc1c(-c2c(Cl)cc3c(N4CC5CCC(C4)N5)nc(OCC45CCCN4CCC5)nc3c2F)cccc1C1CC1` [Compound 695, 2-(4-(3,8-diazabicyclo-[3.2.1]octan-3-yl)-6-chloro-8-fluoro-2-((tetrahydro-1H-pyrrolizin-7a(5H)-yl)meth-oxy)quinazolin-7-yl)-6-cyclopropylaniline] are above 500 nM and above 500 nM.
For the compound `CN1CCCC1CCNc1nc(N2CC3CCC(C2)N3)c2ccc(-c3ccc(F)c4sc(N)nc34)nc2n1` (stereo not shown) [Compound 697, 4-(4-(3,8-diazabicyclo-[3.2.1]octan-3-yl)-2-((2-(1-methylpyrrolidin-2-yl)-ethyl)amino)pyrido[2,3-d]-pyrimidin-7-yl)-7-fluoro-benzo[d]thiazol-2-amine], the half-inhibitory concentration (IC50) (on wildtype Kras / hSOS1; in assay [1]) was above 500 nM throughout.
Consider `CN1CCC[C@H]1COc1nc(N2CCCCC(C(N)=O)C2)c2cc(Cl)c(-c3cccc4sc(N)nc34)c(F)c2n1` (stereo partly drawn) [Compound 700, 1-(7-(2-aminobenzo[d]-thiazol-4-yl)-6-chloro-8-fluoro-2-(((S)-1-methyl-pyrrolidin-2-yl)methoxy)-quinazolin-4-yl)azepane-3-carboxamide], for which the results for the half-maximal inhibitory concentration (IC50) (at wildtype Kras / hSOS1; in assay [1]) were above 500 nM and below 500 nM, respectively.
The corresponding values for `CN(C)CC1(COc2nc(N3C[C@H]4CC[C@@H](C3)N4)c3cc(Cl)c(-c4cc(O)cc5ccccc45)c(F)c3n2)CC1` [Compound 701, 4-(4-((1R,5S)-3,8-diazabicyclo[3.2.1]octan-3-yl)-6-chloro-2-((1-((dimethylamino)methyl)cyclopropyl)methoxy)-8-fluoroquinazolin-7-yl)naphthalen-2-ol] are above 500 nM and below 500 nM.
Regarding `Cc1ccc2[nH]nc(N)c2c1-c1ccc2c(N3CC4CCC(C3)N4)nc(OC[C@@]34CCCN3C[C@H](F)C4)nc2c1F` [Compound 703, 4-(4-(3,8-diazabicyclo-[3.2.1]octan-3-yl)-8-fluoro-2-(((2R,7aS)-2-fluorotetra-hydro-1H-pyrrolizin-7a(5H)-yl)methoxy)quinazolin-7-yl)-5-methyl-1H-indazol-3-amine], the IC50 (at wildtype Kras / hSOS1; in assay [1]) was above 500 nM in each case.
